Key:
[1] = target: T1, human AT1R (angiotensin II type 1 receptor) (Homo sapiens, UniProt P30556); test: inhibition of AngII-induced beta-arrestin activation, cell impedance; type: cell-based
T1 sequence (P30556 1-359): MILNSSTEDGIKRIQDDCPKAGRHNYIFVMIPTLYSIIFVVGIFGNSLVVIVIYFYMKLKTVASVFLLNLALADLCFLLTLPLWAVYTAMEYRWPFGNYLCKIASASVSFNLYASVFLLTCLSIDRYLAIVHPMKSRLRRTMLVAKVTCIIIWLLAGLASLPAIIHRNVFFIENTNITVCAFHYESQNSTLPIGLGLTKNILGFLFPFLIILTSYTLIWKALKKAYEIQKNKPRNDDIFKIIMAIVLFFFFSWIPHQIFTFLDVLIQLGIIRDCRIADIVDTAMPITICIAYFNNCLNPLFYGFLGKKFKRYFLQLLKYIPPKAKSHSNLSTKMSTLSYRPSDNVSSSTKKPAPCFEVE

[2] = target: T1, human AT1R (angiotensin II type 1 receptor); test: inhibition of AngII-induced G protein activation, cell impedance; type: cell-based

Row | Compound | IC50 [1] | IC50 [2]
1 | CCCc1nc(C(C)(C)O)c(C(=O)O)n1Cc1ccc(-c2ccccc2-c2nnn[nH]2)cc1 [Olmesartan] | 20.4 nM | 14.5 nM
2 | CCCCc1ncc(/C=C(\Cc2cccs2)C(=O)O)n1Cc1ccc(C(=O)O)cc1 [Eprosartan] | 7.5 nM | 4.7 nM
3 | CCOc1nc2cccc(C(=O)O)c2n1Cc1ccc(-c2ccccc2-c2nnn[nH]2)cc1 [Candesartan] | 0.7 nM | 2 nM
4 | CCOc1nc2cccc(C(=O)O)c2n1Cc1ccc(-c2ccccc2-c2noc(=O)[nH]2)cc1 [Azilsartan] | 1.6 nM | 1.6 nM

— article PMC4309955 (Scientific Reports, 2015)
